From patent US20240075029A1, “LUMINOL FOR THE PROPHYLAXIS AND THE TREATMENT OF SEQUELAE OF A SARS-COV-2 INFECTION” (METRIOPHARM AG, priority 2020, published 2024)
Read-outs that look alike come from different tables or passages of the source.

Experiments:
[1] = tested on: murine peritoneal macrophages
Text: Female C57131/6 mice (6-8 weeks old) were purchased from Envigo (San Petro al Natisone, Udine, Italy) and housed under standard laboratory conditions (specific-pathogen free). Food and water were applied ad libitum. Animal handling and the study protocol were in accordance with international guidelines.
Four days after i.p. injection of 3% thioglycolate medium (w/v in distilled water; St Louis, MO USA), murine peritoneal macrophages (PM) were isolated according to the protocol of Zhang et al. (Curr. Protoc. Immunol. 2008, Chapter 14, Unit 14.1).
Briefly, cells were collected by injecting 10 ml of complete medium (DMEM/F12 Medium containing 10% fetal calf serum) into the peritoneal cavity using a 30 cc syringe attached to a 19-G needle, followed by slowly withdrawing the lavage fluid. Cells were washed twice in PBS (phosphate buffered saline) and counted.
One hour prior to LPS (lipopolysaccharide) stimulation (0.1 μg/ml; Escherichia coli 055:B5, St Louis, MO USA), cells (0.5×10^6 cells/well in 24-well plates with 1 ml total volume of medium) were pre-treated with scalar concentrations of 5-amino-2,3-dihydro-1,4-phthalazinedione sodium salt (ranging from 1 mM to 0.025 mM). Two independent experiments (each using cells pooled from three mice) were performed and secreted cytokine levels were determined 24, 48 and 72 h after LPS stimulation using ELISA technique.

[2] = tested on: cigarette smoke-induced 3-nitrotyrosine formation in the lung parenchyma; conditions: for 3-nitrotyrosine stained surface area, mean ± SEM: n=5
Text: The isolated, ventilated and perfused mouse lung system (ILU) is an established model for studying acute effects of various conditions and drugs on lung parenchyma and vasculature. It is mainly used for examining effects of hypoxia and for evaluating the efficacy of potential drugs on the hypoxic pulmonary vasoreaction (cf. Weissmann et al. (2006) Proc Natl Acad Sci USA 103: 19093-19098).
C57BL/6J mice (n=25, 5 per group; male/female, 3-6 months, 20-30 g; Charles River GmbH, Sulzfeld, Germany) were anesthetized with a ketamine (100 mg/kg body weight) and xylazine (20 mg/kg body weight) intraperitoneal injection (Ceva Tiergesundheit GmbH, Dusseldorf, Germany) containing heparin (50 I.E. heparin/g body weight; Ratiopharm GmbH, Ulm, Germany). […] Lungs were ventilated in an isolated chamber using normoxic gas (21% O2, 5% CO2, 74% N2; 150 breaths per minute at the PEEP (positive end-expiratory pressure) of 3 cm H2O) and perfused with a modified Krebs-Henseleit buffer (120.0 mM NaCl, 4.3 mM KCl, 1.1 mM KH2PO4, 2.4 mM CaCl2, 1.3 mM MgCl2, 13.14 mM glucose, 0.25 mM hydroxyethyl starch 200000/0.5, 25.0 mM NaHCO3 adjusted to a constant pH range of […] L-arginine; Serag-Wissner GmbH & Co. KG, Naila, Germany) at a temperature of 37° C. Lung weight, right and left ventricle pressure, as well as ventilatory pressure were monitored and recorded during the whole experimental procedure. After 5-10 minutes, when the lung was properly flushed and all the parameters were stable, 5-amino-2,3-dihydro-1,4-phthalazinedione sodium salt was applied by adding 150 μl of a stock solution to 15 ml of the circulating perfusion buffer. The substance was applied 10 minutes prior to the first cigarette smoke application. Cigarette smoke was applied via trachea while lung is perfused with the buffer containing 5-amino-2,3-dihydro-1,4-phthalazinedione sodium salt. […] 50 ml of the cigarette smoke were taken via a syringe and applied to the lung via trachea (FIG. 4A) in deep breaths (periodic inflation for 3-4 s) over a period of 5 min. The application was done manually while carefully monitoring the inspiratory pressure to avoid damage of the lung. The cigarette smoke application was repeated three times with a 1 hour break in-between.
Five treatment groups (n=5, respectively) were investigated: • A: room air exposure • B: cigarette smoke+diluent (buffer solution) • C: cigarette smoke+0.5 mM 5-amino-2,3-dihydro-1,4-phthalazinedione sodium salt • D: cigarette smoke+1 mM 5-amino-2,3-dihydro-1,4-phthalazinedione sodium salt • E: cigarette smoke+2 mM 5-amino-2,3-dihydro-1,4-phthalazinedione sodium salt
5-amino-2,3-dihydro-1,4-phthalazinedione sodium salt Form I was dissolved in water for injection (vehicle) at the required concentrations described above. Stock solutions were prepared in water for injection. Further 1:100 dilutions were made with modified Krebs-Henseleit buffer (see above). Stock solutions were stored at −70° C. in appropriate aliquots. The required amount of stock solution was thawed, and the corresponding working solution was prepared for immediate use.
One hour after the third cigarette smoke application lungs were removed from the system and fixed by inflating with formalin solution (via trachea) at the pressure of 12-15 cm H2O for two hours at room temperature. Afterwards the fixed lungs were kept in PBS (phosphate buffer saline, see below) at +4° C. until further dehydration and paraffin embedding. Paraffin blocks were cut 3 μm thick, dried overnight at 37° C. and stained for 3-nitrotyrosine (3-NT).

chronic fatigue = conditions: human, in vivo
dyspnea = conditions: human, in vivo
joint pain = conditions: human, in vivo
SARS-CoV-2 = conditions: Vero B4 cell culture; Schumann et al. (2020); cited from earlier work
[3] = 1 mM, pre-treatment 1 h prior to LPS (0.1 μg/ml), LPS only = 100%, C57 mice PMs

Nc1cccc2c(=O)[nH][nH]c(=O)c12.[Na] [5-amino-2,3-dihydro-1,4-phthalazinedione sodium salt]
reduction of IL-1-beta level [1, 3]: ~50% | reduction of IL-6 level [1, 3]: ~80% | reduction of IL-12 level [1, 3]: ~60% | reduction of TNF-alpha level [1, 3]: about 40% | cytokine reduction in PMs of a second mouse strain (Balb/c) ([1]; Balb/c PMs, six concentrations ranging from 1 mM to 0.25 mM, data not shown): clear dose-dependency | cytokine secretion of unstimulated murine PMs ([1]; no LPS stimulation, data not shown): did not affect | cigarette smoke induced 3-nitrotyrosine formation (immunohistochemistry, in words) ([2]; 0.5 mM in perfusion buffer): moderate effect | cigarette smoke induced 3-nitrotyrosine formation (immunohistochemistry, in words) ([2]; 1 mM in perfusion buffer): almost completely abolished | cigarette smoke induced 3-nitrotyrosine formation (immunohistochemistry, in words) ([2]; 2 mM in perfusion buffer): almost completely abolished | 3-nitrotyrosine stained surface area, mean ± SEM ([2]; cigarette smoke + 0.5 mM in perfusion buffer): 2.24 ± 0.28 % area | 3-nitrotyrosine stained surface area, mean ± SEM ([2]; cigarette smoke + 1 mM in perfusion buffer): 0.72 ± 0.26 % area | 3-nitrotyrosine stained surface area, mean ± SEM ([2]; cigarette smoke + 2 mM in perfusion buffer): 0.37 ± 0.13 % area | symptoms of chronic fatigue (chronic fatigue): continuous waning of the symptoms | physical performance (dyspnea) (dyspnea): continuous improvement of the physical performance | joint pain (joint pain): continuous waning of the joint pain | replication of SARS-CoV-2 (SARS-CoV-2): almost completely block
